Structures are written as SMILES.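 Following 48 hours of exposure in 96-well plates, responses at five concentrations were used to interpolate endpoints linearly. GI50 is the concentration that inhibits growth by half.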 Calls of active or inactive are those of the source. Rule as the data show it: active = GI50 up to about 1.1 µM and inactive = higher. Some results are limits rather than exact numbers.

Common to all, as to assay: NCI anticancer screen, dose series, 48 h
Test [1] deals with COLO 205.
Test [2] concerns UO-31.
The test system of test [3] is SNB-19.
For test [4], the system named is OVCAR-4.
The subject of test [5] is OVCAR-5.
Test [6] relates to ACHN.
Test [7] relates to NCI-H23.
Test [8] has as its system K562.
Test [9] deals with UACC-62.
For test [10], the system named is PC-3.
Test [11] deals with KM12.
For test [12], the system named is MOLT-4.
Test [13] has as its system BT-549.
Test [14] deals with MDA-N.
The test system of test [15] is DU-145.
The test system of test [16] is HCT-116.
In test [17] the test system is A549.
In test [18] the test system is HOP-92.
Test [19] relates to T47D.
For test [20], the system named is SR.

On to `CSc1nc(-c2cc3c(c(SC)n2)CCC3)cc2c1CCC2`, for which the GI50 in test [1], in [2], in test [3], in [4], in test [5] and in [6] was > 100 µM (inactive) each time. Also, the GI50 in test [7], in test [8], in test [9], in [10], in [11] and in test [12] was > 100 µM (inactive) throughout. Further, the GI50 in test [13], in test [14], in test [15], in test [16] and in test [17] was > 100 µM (inactive) each time.
Take `CCN(CC)CCN1C(=O)c2c(c(-c3ccccc3)c3ccccc3c2-c2ccccc2)C1=O`: the GI50 is > 100 µM (inactive) in test [1]; 36.8 µM (inactive) in test [18]; 46.3 µM (inactive) in test [3]; > 100 µM (inactive) in test [4]; > 100 µM (inactive) in test [5]; > 100 µM (inactive) in test [6]. The GI50 in test [8], in test [9], in test [10], in [11], in test [12] and in test [13] was > 100 µM (inactive) in each case. The GI50 in [14], in [16] and in [17] was > 100 µM (inactive) in each case.
Regarding `CC(=O)OC1CN2CCC1CC2` (stereo unspecified) [ACECLIDINE], the GI50 in [1], in test [18], in test [2], in test [3], in test [4] and in test [5] was > 100 µM (inactive) in each case. Moreover, the GI50 in test [6], in test [7], in [8], in [9], in test [10] and in test [19] was > 100 µM (inactive) in each case. Moreover, the GI50 in test [11], in [20], in test [12], in test [13], in test [15] and in test [16] was > 100 µM (inactive) each time. In addition, the GI50 in [17] was > 100 µM (inactive).
Consider `CN(C)Cc1cc(C=O)cc(CN(C)C)c1O`, for which the GI50 in [1], in [18], in test [2], in [3], in test [4] and in test [6] was > 100 µM (inactive) in each case. Also, the GI50 in test [7] was 26.1 µM (inactive); in test [8], > 100 µM (inactive); in test [10], > 100 µM (inactive); in test [11] it was > 100 µM (inactive); in test [20], > 100 µM (inactive); in test [12], > 100 µM (inactive). Besides, the GI50 in test [13], in test [14], in test [15], in test [16] and in [17] was > 100 µM (inactive) throughout.
In the case of `Clc1ccc(Cc2nc3cc4ccccc4cc3[nH]2)cc1Cl`, the GI50 in test [1] was 18.5 µM (inactive); in [18] it was 11.7 µM (inactive); in test [2], 14 µM (inactive); in [3], 18.7 µM (inactive); in [4], 13 µM (inactive); in test [5], 32.5 µM (inactive). In addition, the GI50 in test [6] was 30.8 µM (inactive); in [7], 27.3 µM (inactive); in test [8], 6.15 µM (inactive); in test [9] it was 14.2 µM (inactive); in test [10], 13 µM (inactive); in test [19], 12.2 µM (inactive). Further, the GI50 in test [11] is 16.4 µM (inactive); in test [20], 7.6 µM (inactive); in test [12], 2.37 µM (inactive); in test [13], 16 µM (inactive); in [15], 20.7 µM (inactive); in test [16], 20.1 µM (inactive). In addition, the GI50 in [17] is 16.4 µM (inactive).
Turning to `Cc1ccnc2nc(-c3cccc4ccccc34)cc(O)c12`, the GI50 was 0.0177 µM (active) in [1]; 0.00123 µM (active) in [18]; 0.0188 µM (active) in test [2]; 0.0147 µM (active) in [3]; 0.115 µM (active) in test [4]; 0.0516 µM (active) in [5]. In addition, the GI50 in test [6] was 0.0248 µM (active); in test [7], 0.0783 µM (active); in test [8] it was 0.000483 µM (active); in test [9], 0.00196 µM (active); in test [10], 0.0113 µM (active); in test [11] it was 0.0183 µM (active). Besides, the GI50 was 0.0007 µM (active) in test [20]; 0.00989 µM (active) in test [12]; 14.1 µM (inactive) in test [13]; 0.000104 µM (active) in [14]; 0.035 µM (active) in test [15]; 0.00542 µM (active) in test [16]. The GI50 in test [17] was 0.019 µM (active).
Regarding `O=C(O)Cc1c(-c2ccc([N+](=O)[O-])cc2)c(=O)oc2cc(O)ccc12`, the GI50 in test [1] is 34.2 µM (inactive); in test [2], 23.4 µM (inactive); in [3] it was 25.1 µM (inactive); in [5] it was 30.1 µM (inactive); in test [6], 24.2 µM (inactive); in test [7] it was 36.3 µM (inactive). Further, the GI50 in [8] is 30.9 µM (inactive); in test [9], 38.9 µM (inactive); in test [10], 28.1 µM (inactive); in test [11], 26.9 µM (inactive); in test [20], 25.9 µM (inactive); in [12] it was 4.12 µM (inactive). The GI50 in [13] was 23.8 µM (inactive); in [14], 30.4 µM (inactive); in [15] it was 30.4 µM (inactive); in test [16] it was 26.1 µM (inactive); in test [17], 37.3 µM (inactive).
Turning to `COc1ccc(CC(C)NCC(O)c2ccc(O)c(NC=O)c2)cc1` (stereo unspecified), the GI50 in test [1], in [2], in test [3], in [4], in [5] and in test [6] was > 100 µM (inactive) each time. Further, the GI50 in test [7], in test [8], in [9], in test [10], in test [19] and in test [11] was > 100 µM (inactive) throughout. The GI50 in [20] is > 100 µM (inactive); in test [12], > 100 µM (inactive); in [13], > 100 µM (inactive); in test [15] it was > 100 µM (inactive); in test [16], 43.4 µM (inactive); in [17], > 100 µM (inactive).
`O=c1c2ccc(Cl)cc2oc2c(CNc3ccc(S(=O)(=O)Nc4ncccn4)cc3)cccc12`: the GI50 in test [1], in test [18], in [2], in test [3], in test [4] and in test [5] was > 100 µM (inactive) each time. The GI50 in test [6], in [7], in [8], in [9], in test [10] and in test [19] was > 100 µM (inactive) in each case. Moreover, the GI50 in test [11], in [20], in test [12], in test [13], in test [14] and in test [16] was > 100 µM (inactive) throughout. In addition, in test [17], the GI50 was > 100 µM (inactive).
Regarding `O=S1(=O)c2cnccc2N=C(NCc2ccccc2)N1c1ccccc1`, the GI50 in [1] was 61.9 µM (inactive); in [18] it was 57.5 µM (inactive); in test [2] it was > 100 µM (inactive); in [3], > 100 µM (inactive); in test [4] it was > 100 µM (inactive); in [5], > 100 µM (inactive). Also, the GI50 is 36.7 µM (inactive) in test [6]; 64.3 µM (inactive) in test [7]; > 100 µM (inactive) in [8]; 46.7 µM (inactive) in test [9]; 75.3 µM (inactive) in test [10]; 35.8 µM (inactive) in test [19]. Moreover, the GI50 is > 100 µM (inactive) in test [11]; 58.6 µM (inactive) in test [20]; 34.9 µM (inactive) in [12]; > 100 µM (inactive) in [13]; 67.1 µM (inactive) in test [15]; 73.8 µM (inactive) in [16]. The GI50 in test [17] is > 100 µM (inactive).
With `O=C(O)c1ccc(-c2nc3cc(Cl)ccc3[nH]2)cc1`, the GI50 in test [1], in [18], in test [2], in test [3], in test [8] and in test [10] was > 100 µM (inactive) throughout. Also, the GI50 in test [19], in [11], in [20], in [12], in test [13] and in [17] was > 100 µM (inactive) each time.

Values taken from ChEMBL document CHEMBL1201862, “PubChem BioAssay data set” (2004).
